Measured values: patent US12692253B2, “Antimicrobial compounds and methods” (Curza Global, LLC, priority 2019, dated 2026)

Legend:
E. coli (Ec) = test: Broth microdilution minimum inhibitory concentration (MIC), CLSI; format: cell-based; conditions: Escherichia coli, growth medium supplemented with sodium bicarbonate, read-out: E. coli + bicarb MIC
Method in brief: (§1)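 Two-fold serial dilutions in CAMHB, optionally with sodium bicarbonate (6.25 or 25 mM final) or heat-inactivated human serum (0-50%), 8 concentrations, triplicate. Inoculum 5×10^4 CFU/well from log-phase cultures grown at 35±2 °C to 0.5 McFarland.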

E. faecalis (Ef) = test: as above; format: cell-based; conditions: Enterococcus faecalis, growth medium supplemented with sodium bicarbonate, read-out: Ef + bicarb MIC
Method in brief: as §1

S. aureus (Sa) = test: as above; format: cell-based; conditions: Staphylococcus aureus, growth medium supplemented with sodium bicarbonate, read-out: Sa + bicarb MIC
Method in brief: as §1

P. aeruginosa (Pa) = test: as above; format: cell-based; conditions: Pseudomonas aeruginosa, growth medium supplemented with sodium bicarbonate, read-out: Pa MIC + bicarb
Method in brief: as §1

A. baumannn (Ab) = test: as above; format: cell-based; conditions: Acinetobacter baumannii, read-out: Ab + bicarb MIC
Method in brief: as §1

[1] = tested on: E. coli S30 extract (bacterial protein synthesis); test: E. coli S30 extract coupled transcription-translation luciferase assay (inhibition of bacterial protein synthesis); format: biochemical; conditions: class by IC50 or % inhibition @ 1 μM, read-out: S30 IC50 (μM/% inhib.)
Method in brief: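 Luciferase luminescence quantified inhibition of protein synthesis relative to water controls, with no-DNA reactions giving background. Compounds in 2-fold serial dilution (8 levels) were incubated 1 hour at 37 °C with E. coli S30 extract, amino acids and pBESTluc plasmid, then chilled to stop.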

[2] = biological target: Rabbit Reticulocyte Lysate (eukaryotic protein synthesis); test: Rabbit reticulocyte lysate luciferase assay (inhibition of eukaryotic protein synthesis); format: biochemical; conditions: class by IC50 or % inhibition @ 1 μM, read-out: Rabbit reticulocyte IC50 (μM/% inhib.)
Method in brief: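 Percent inhibition calculated against water-only controls from luminescence; background set by lysate lacking RNA. Compounds, 8-point 2-fold titration, incubated 90 minutes at 30° C with nuclease-treated rabbit reticulocyte lysate programmed with luciferase control RNA plus complete amino acids.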

Structure (SMILES) | MIC (E. coli (Ec)) [µg/mL] | MIC (E. faecalis (Ef)) [µg/mL] | MIC (S. aureus (Sa)) [µg/mL] | MIC (P. aeruginosa (Pa)) [µg/mL] | MIC (A. baumannn (Ab)) [µg/mL] | IC50 [1] [µM] | IC50 [2] [µM]
Cc1cc(-n2ccc(NC(=O)N3CCN(C(=O)C(C)(C)N)CC3)nc2=O)ccc1CCN1C[C@@H]2[C@@H](CN)[C@@H]2C1 [Compound 126] | < 8 | 8 to 32 | < 8 | 8 to 32 | 8 to 32 | < 0.5 | ≥ 1
CC(C)(N)C(=O)N1CCN(C(=O)Nc2ccn(-c3ccc(CCN4C[C@@H]5[C@@H](CN)[C@@H]5C4)c(F)c3)c(=O)n2)CC1 [Compound 127] | < 8 | 8 to 32 | 8 to 32 | 8 to 32 | > 32 | < 0.5 | ≥ 1
Cc1cc(-n2ccc(NC(=O)N3CCN(C(=O)[C@@](C)(N)CO)CC3)nc2=O)ccc1CCN1CC2CC2(CN)C1 (stereo partly drawn) [Compound 128] | < 8 | 8 to 32 | < 8 | > 32 | > 32 | < 0.5 | ≥ 1
Cc1cc(-n2ccc(NC(=O)N3CCN(C(=O)[C@@](C)(N)CO)CC3)nc2=O)ccc1CCN1C[C@@H]2[C@@H](CN)[C@@H]2C1 [Compound 129] | < 8 | 8 to 32 | < 8 | 8 to 32 | > 32 | < 0.5 | ≥ 1
Cc1cc(-n2ccc(NC(=O)N3CCN(C(=O)C(C)(C)N)CC3)nc2=O)ccc1CCN1CC2CC2(CN)C1 (stereo not drawn) [Compound 130] | < 8 | < 8 | < 8 | 8 to 32 | 8 to 32 | < 0.5 | ≥ 1
CC(C)(N)C(=O)N1CCN(C(=O)Nc2ccn(-c3ccc(CCN4CC5CC5(CN)C4)c(C(F)(F)F)c3)c(=O)n2)CC1 (stereo not drawn) [Compound 131] | < 8 | < 8 | < 8 | > 32 | 8 to 32 | < 0.5 | ≥ 1
COc1cc(-n2ccc(NC(=O)N3CCN(C(=O)C(C)(C)N)CC3)nc2=O)ccc1CCN1C[C@@H]2[C@@H](CN)[C@@H]2C1 [Compound 132] | < 8 | 8 to 32 | 8 to 32 | 8 to 32 | > 32 | < 0.5 | ≥ 1
COc1cc(-n2ccc(NC(=O)N3CCN(C(=O)C(C)(C)N)CC3)nc2=O)ccc1CCN1CC2CC2(CN)C1 (stereo not drawn) [Compound 133] | < 8 | 8 to 32 | 8 to 32 | > 32 | > 32 | < 0.5 | ≥ 1
CC(N)[C@H]1[C@@H]2CN(CCc3ccc(-n4ccc(NC(=O)N5CCN(C(=O)C(C)(C)N)CC5)nc4=O)cc3)C[C@@H]21 (stereo partly drawn) [Compound 134] | < 8 | < 8 | < 8 | 8 to 32 | 8 to 32 | < 0.5 | ≥ 1
CCC(Cc1ccc(-n2ccc(NC(=O)N3CCN(C(=O)C(C)(C)N)CC3)nc2=O)cc1)N1C[C@@H]2[C@@H](CN)[C@@H]2C1 (stereo partly drawn) [Compound 135] | < 8 | < 8 | < 8 | < 8 | < 8 | < 0.5 | ≥ 1
CC(Cc1ccc(-n2ccc(NC(=O)N3CCN(C(=O)C(C)(C)N)CC3)nc2=O)cc1)N1C[C@@H]2[C@H](C1)[C@H]2C(N)=O (stereo partly drawn) [Compound 136] | > 32 | > 32 | > 32 | > 32 | > 32 | ≥ 1 | ≥ 1
CC(C)(N)C(=O)N1CCN(C(=O)Nc2ccn(-c3ccc(C(N)C(=O)N4C[C@@H]5[C@@H](CN)[C@@H]5C4)cc3)c(=O)n2)CC1 (stereo partly drawn) [Compound 137] | > 32 | > 32 | > 32 | > 32 | > 32 | 0.5 to 1 | ≥ 1
CNC[C@@H]1[C@H]2CN(C(C)Cc3ccc(-n4ccc(NC(=O)N5CCN(C(=O)C(C)(C)N)CC5)nc4=O)cc3)C[C@@H]12 (stereo partly drawn) [Compound 138] | < 8 | 8 to 32 | < 8 | > 32 | > 32 | 0.5 to 1 | ≥ 1
CC(Cc1ccc(-n2ccc(NC(=O)N3CCN(C(=O)C(C)(C)N)CC3)nc2=O)cc1F)N1C[C@@H]2[C@@H](CN)[C@@H]2C1 (stereo partly drawn) [Compound 139] | < 8 | < 8 | < 8 | 8 to 32 | 8 to 32 | < 0.5 | ≥ 1
C[C@H](Cc1ccc(-n2ccc(NC(=O)N3CCN(C(=O)C(C)(C)N)CC3)nc2=O)cc1)N1C[C@@H]2[C@@H](CN)[C@@H]2C1 [Compound 140] | < 8 | < 8 | < 8 | 8 to 32 | 8 to 32 | < 0.5 | ≥ 1
C[C@@H](Cc1ccc(-n2ccc(NC(=O)N3CCN(C(=O)C(C)(C)N)CC3)nc2=O)cc1)N1C[C@@H]2[C@@H](CN)[C@@H]2C1 [Compound 141] | < 8 | < 8 | < 8 | < 8 | 8 to 32 | < 0.5 | ≥ 1
CC(C)(N)C(=O)N1CCN(C(=O)Nc2ccn(-c3cccc(CCN4CC5CC5(CN)C4)c3)c(=O)n2)CC1 (stereo not drawn) [Compound 142] | < 8 | 8 to 32 | 8 to 32 | > 32 | > 32 | 0.5 to 1 | ≥ 1
CC(C)(N)C(=O)N1CCN(C(=O)Nc2ccn(-c3cccc(CCN4C[C@@H]5[C@@H](CN)[C@@H]5C4)c3)c(=O)n2)CC1 [Compound 143] | < 8 | 8 to 32 | 8 to 32 | > 32 | > 32 | 0.5 to 1 | ≥ 1
CC(C)(N)C(=O)N1CCN(C(=O)Nc2ccn(-c3cccc(CCN4C[C@H]5C[C@@]5(N)C4)c3)c(=O)n2)CC1 [Compound 144] | 8 to 32 | > 32 | > 32 | > 32 | > 32 | ≥ 1 | ≥ 1
NC[C@@H]1[C@H]2CN(CCc3ccc(-n4ccc(NC(=O)N5CCC6(CCNC6)C5)nc4=O)cc3)C[C@@H]12 (stereo partly drawn) [Compound 145] | < 8 | > 32 | 8 to 32 | > 32 | > 32 | ≥ 1 | ≥ 1
NC[C@@H]1[C@H]2CN(CCc3ccc(-n4ccc(NC(=O)N5CCC6(CC5)CC(N)C6)nc4=O)cc3)C[C@@H]12 [Compound 146] | < 8 | < 8 | < 8 | 8 to 32 | 8 to 32 | ≥ 1 | ≥ 1
